Test results as given in US11180487B2, “Substituted cyanoindoline derivatives as NIK inhibitors” (Janssen Pharmaceutica NV, priority 2016, dated 2021).
Read-outs that look alike come from different tables or passages of the source.

Experiments:
[1] = target: recombinant human NF-kappaB-inducing kinase (NIK/MAP3K14) (Homo sapiens, UniProt Q99558); assay: Inhibition of auto-phosphorylation of recombinant human NIK/MAP3K14 activity (AlphaScreen), Biological Assay A; format: biochemical; conditions: averaged values over all measurements on all batches
Chain of recombinant human NF-kappaB-inducing kinase (NIK/MAP3K14) (Q99558 whole entry): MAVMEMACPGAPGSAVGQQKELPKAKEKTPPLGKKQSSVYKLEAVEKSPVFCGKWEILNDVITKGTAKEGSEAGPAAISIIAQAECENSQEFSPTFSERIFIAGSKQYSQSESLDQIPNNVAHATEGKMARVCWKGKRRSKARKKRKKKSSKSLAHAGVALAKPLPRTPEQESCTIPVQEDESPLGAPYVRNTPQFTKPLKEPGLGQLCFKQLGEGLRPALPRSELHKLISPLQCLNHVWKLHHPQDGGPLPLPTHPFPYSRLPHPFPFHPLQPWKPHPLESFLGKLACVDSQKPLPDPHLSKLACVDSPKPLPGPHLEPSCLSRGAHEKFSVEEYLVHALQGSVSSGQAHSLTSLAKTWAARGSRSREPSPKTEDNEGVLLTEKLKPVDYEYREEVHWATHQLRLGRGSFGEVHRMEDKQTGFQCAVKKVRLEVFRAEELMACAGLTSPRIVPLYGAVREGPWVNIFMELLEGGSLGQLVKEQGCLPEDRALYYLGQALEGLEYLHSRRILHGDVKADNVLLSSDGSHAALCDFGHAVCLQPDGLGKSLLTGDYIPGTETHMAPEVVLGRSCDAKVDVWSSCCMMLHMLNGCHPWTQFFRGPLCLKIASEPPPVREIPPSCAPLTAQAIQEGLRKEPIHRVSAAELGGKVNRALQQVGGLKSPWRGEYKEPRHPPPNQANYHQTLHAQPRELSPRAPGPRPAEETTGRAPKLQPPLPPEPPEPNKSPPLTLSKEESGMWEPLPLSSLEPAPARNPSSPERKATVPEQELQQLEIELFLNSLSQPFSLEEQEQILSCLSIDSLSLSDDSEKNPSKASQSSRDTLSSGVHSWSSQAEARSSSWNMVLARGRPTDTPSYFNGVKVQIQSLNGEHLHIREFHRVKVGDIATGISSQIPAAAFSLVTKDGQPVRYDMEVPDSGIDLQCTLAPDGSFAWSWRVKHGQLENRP
Method in brief: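 GST-tagged enzyme (0.2 nM) incubated with compound and 25 μM ATP in 50 mM Tris pH 7.5, 5 mM MgCl2, 1 mM EGTA, 1 mM DTT, 0.1 mM Na3VO4, 1% DMSO, 1 h at 25 °C. Stopped with anti-phospho-IKK Ser176/180 antibody; AlphaScreen bead read, blank-subtracted, IC50 from sigmoidal fit.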

[2] = tested on: P-IKKα levels in L363 (NIK translocated multiple myeloma) cells; assay: Effect of compounds on P-IKKα levels in L363 cells (Mesoscale sandwich immuno-assay), Biological Assay B; format: cell-based, human; conditions: 2 hr treatment, averaged values, read-out: Inhibition of pIKKα_L-363 (IC50 (nM))
Method in brief: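 L363 NIK-translocated myeloma cells primed 24 h with 1 μg/ml BAFF (stock), then treated 2 h with compound (1% DMSO, 8-point 1:3 dilutions). Lysate P-IKKα measured by Mesoscale sandwich immunoassay; MG132+BAFF controls, blank with 10 μM ADS125117 subtracted. IC50 from sigmoidal fit of % inhibition versus log concentration.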

[3] = tested on: JJN-3 (NIK translocated) multiple myeloma cells; assay: Antiproliferative activity on JJN-3 multiple myeloma cells (CellTiter-Glo, 96 hr), Biological Assay C; format: cell-based, human; conditions: JJN-3 (NIK translocated) cells, averaged values, read-out: JJN-3 Proliferation inhibition (IC50 (nM))
Method in brief: (§1)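 JJN-3 and KMS12-BM cells in RPMI 1640 with 10% FCS were plated at 15000–20000 cells/well and treated 96 h with a 9-point 1:3 dilution series (0.3% DMSO). Viability read by CellTiter-Glo luminescence, blank (time-zero cells) subtracted, expressed as % of untreated control; duplicate wells.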

[4] = tested on: KMS12-BM (NIK WT) multiple myeloma cells; assay: Antiproliferative activity on KMS12-BM multiple myeloma cells (CellTiter-Glo, 96 hr), Biological Assay C; format: cell-based, human; conditions: averaged values, read-out: KMS-12 Proliferation inhibition (IC50 (nM))
Method in brief: as §1

Compound | IC50 [1] [nM] | IC50 ([2]; Homo sapiens, L-363, 2 h) [nM] | IC50 [3] [nM] | IC50 [4] [nM] | melting point [°C] | IC50 ([3]; Homo sapiens, JJN-3, 96 h) [nM] | IC50 ([4]; Homo sapiens, KMS-12-BM, 96 h) [nM] | IC50 [2] [nM]
Cc1cc(C2CCCN(C)C2)c(C#N)cc1Nc1nccc(-c2cc(C#N)c3c(c2)[C@@](C)(CO)CN3)n1 (some centres unmarked) [Compound 177] | 3.2 | 1.2 | 14 | ~246 | 222 | – | – | –
Cc1ccc(C(=O)N(C)C)cc1Nc1nccc(-c2cc(C#N)c3c(c2)[C@@](C)(CO)CN3)n1 [Compound 160] | 11.2 | 64.6 | – | – | 206 | 4790 | > 10000 | –
Cc1ccc(C#N)cc1Nc1nccc(-c2cc(C#N)c3c(c2)[C@@](C)(CO)CN3)n1 [Compound 132] | 1.3 | – | 128 | 5010 | 234 | – | – | 2.2
C[C@]1(CO)CNc2c(C#N)cc(-c3ccnc(Nc4cc(C#N)ccc4CN4CCOCC4)n3)cc21 [Compound 224] | 14.1 | 83.2 | – | – | 238 | 3240 | > 10000 | –
CC(=O)OC[C@@]1(C)CNc2c(C#N)cc(-c3ccnc(Nc4cc(C#N)ccc4OCC4CC4)n3)cc21 [Compound 128] | 251 | 20.9 | – | – | 156 | 407 | > 10000 | –
Cc1c(Nc2nccc(-c3cc(C#N)c4c(c3)[C@@](C)(CO)CN4)n2)cccc1C(=O)N1CCN(C2COC2)CC1 [Compound 207] | 5 | 13.2 | – | – | 268 | 66 | ~9550 | –
Cc1ccc(C2CCN(C)CC2)cc1Nc1nccc(-c2cc(C#N)c3c(c2)[C@@](C)(CO)CN3)n1 [Compound 192] | 72.4 | 2950 | – | – | 250 | 1180 | 537 | –
Cc1c(CN2CC(C)OC(C)C2)cccc1Nc1nccc(-c2cc(C#N)c3c(c2)[C@@](C)(CO)CN3)n1 (some centres unmarked) [Compound 197] | 6 | 4.8 | – | – | 223 | 33 | ~240 | –
COC(=O)c1cc(OC)c(Nc2nccc(-c3cc(C#N)c4c(c3)C(C)(C)CN4)n2)cc1Cl [Compound 106] | 63.1 | 123 | – | – | 208 | 1620 | > 10000 | –
Cc1cc(C2CCN(C)CC2)c(C#N)cc1Nc1nccc(-c2cc(C#N)c3c(c2)[C@@](C)(CO)CN3)n1 [Compound 175] | 1.8 | 2.8 | – | – | 226 | 27 | ~191 | –
CN1CCC(Oc2ccc(C#N)cc2Nc2nccc(-c3cc(C#N)c4c(c3)[C@@](C)(CO)CN4)n2)CC1 [Compound 223] | 1.6 | 3.1 | – | – | 129 | 23 | ~851 | –
Cc1ccc(OCCNC2CC2)c(Nc2nccc(-c3cc(C#N)c4c(c3)[C@@](C)(CO)CN4)n2)c1 [Compound 235] | 3.9 | 60.3 | – | – | 133 | 457 | 2690 | –
C[C@]1(CO)CNc2c(C#N)cc(-c3ccnc(Nc4cc(C#N)ccc4OCC4CC4)n3)cc21 [Compound 13] | 9.2 | 30.9 | – | – | 194 | 146 | > 10000 | –
CC(C)Oc1cc(P(C)(C)=O)ccc1Nc1nccc(-c2cc(C#N)c3c(c2)[C@@](C)(CO)CN3)n1 [Compound 18] | 2.6 | 20 | – | – | 263 | 407 | ~8130 | –
Cc1cc(C2CCCN(C)C2)c(C#N)cc1Nc1nccc(-c2cc(C#N)c3c(c2)[C@@](C)(CO)CN3)n1 (some centres unmarked) [Compound 179] | 2.2 | – | 58 | 1290 | 188 | – | – | 1.4
Cc1ccc(C#N)cc1Nc1nccc(-c2cc(C#N)c3c(c2)[C@@](C)(COC(=O)CC(=O)O)CN3)n1 [Compound 142b] | 17 | – | 977 | > 10000 | 214 | – | – | ~58.9

Compound | IC50 [1] [nM] | IC50 ([2]; Homo sapiens, L-363, 2 h) [nM] | IC50 [3] [nM] | IC50 [4] [nM] | melting point [°C] | IC50 ([3]; Homo sapiens, JJN-3, 96 h) [nM] | IC50 ([4]; Homo sapiens, KMS-12-BM, 96 h) [nM] | IC50 [2] [nM]
Cc1ccc(C#N)cc1Nc1nccc(-c2cc(C#N)c3c(c2)[C@@](C)(COC(=O)CN2CCOCC2)CN3)n1 [Compound 146] | 19.9 | 5.2 | – | – | 186 | 78 | > 10000 | –
Cc1cc(S(C)(=O)=O)ccc1Nc1nccc(-c2cc(C#N)c3c(c2)[C@@](C)(CO)CN3)n1 [Compound 17] | 1.1 | 6.8 | – | – | 148 | 56 | 479 | –
[2H]C([2H])(c1cccc(Nc2nccc(-c3cc(C#N)c4c(c3)[C@@](C)(CO)CN4)n2)c1C)N1CC(C)OC(C)C1 (some centres unmarked) [Compound 198] | 4.6 | 5.6 | – | – | 222 | 63 | ~550 | –
[2H]C([2H])([2H])N1CCN(C(=O)c2cc(C#N)cc(Nc3nccc(-c4cc(C#N)c5c(c4)[C@@](C)(CO)CN5)n3)c2C)CC1 [Compound 204] | 6.2 | 1.5 | – | – | 297 | 14 | ~3980 | –
Cc1ccc(C#N)cc1Nc1nccc(-c2cc(C#N)c3c(c2)[C@@](C)(COC(=O)C(C)C)CN3)n1 [Compound 126] | 112 | ~6.9 | – | – | 200 | 151 | ~8910 | –
CCS(=O)(=O)N(C)c1cccc(Nc2nccc(-c3cc(C#N)c4c(c3)C(C)(CO)CN4)n2)c1 (centres unmarked) [Compound 240] | 2.5 | 11.2 | – | – | 259 | 44 | 302 | –
CNC(=O)c1cc(Nc2nccc(-c3cc(C#N)c4c(c3)[C@@](C)(CO)CN4)n2)c(OC2CC2)cc1F [Compound 156] | 4.8 | 7.8 | – | – | 206 | 251 | > 10000 | –
Cc1ccc(C#N)cc1Nc1ncnc(-c2cc(C#N)c3c(c2)[C@@](C)(CO)CN3)n1 [Compound 213] | 4.2 | 5 | – | – | 304 | 1070 | > 10000 | –
Cc1ccc(C#N)cc1Nc1nccc(-c2cc(C#N)c3c(c2)[C@@](C)(CO)CN3)n1 [Compound 133] | 0.7 | – | 170 | 4360 | 262 | – | – | 3
Cc1ccc(C#N)cc1Nc1nccc(-c2cc(C#N)c3c(c2)[C@@](C)(COC(=O)[C@@H](C)N)CN3)n1 [Compound 141] | 8.7 | 2.2 | – | – | 212 | 33 | > 10000 | –
COCCOc1ccc(C#N)cc1Nc1nccc(-c2cc(C#N)c3c(c2)[C@@](C)(COC(C)=O)CN3)n1 [Compound 127] | 129 | 11.5 | – | – | 158 | 570 | > 10000 | –
Cc1ccc(C#N)cc1Nc1nccc(-c2cc(C#N)c3c(c2)[C@@](C)(COC(=O)CC(=O)O)CN3)n1 [Compound 142a] | 12 | – | 3630 | – | 138 | – | > 10000 | 2.2
COCCCc1ccc(C#N)cc1Nc1nccc(-c2cc(C#N)c3c(c2)[C@@](C)(CO)CN3)n1 [Compound 74] | 4 | 16.2 | – | – | 124 | 182 | ~1150 | –
Cc1cc(-c2cnn(C)c2)c(C#N)cc1Nc1nccc(-c2cc(C#N)c3c(c2)[C@@](C)(CO)CN3)n1 [Compound 188] | 2.6 | 5.4 | – | – | 190 | 54 | > 10000 | –
CCC(=O)NCCCc1cc(C)c(Nc2nccc(-c3cc(C#N)c4c(c3)[C@@](C)(CO)CN4)n2)cc1C#N [Compound 172] | 4.8 | 2.4 | – | – | 193 | 65 | > 10000 | –
